Experimental data reported in publication PMC8550792, “Evolution of kinase polypharmacology across HSP90 drug discovery” (Cell Chemical Biology, 2021).

Experiments:
Test in all cases: biochemical
Format in all cases: biochemical
382 unique human kinases [1] = biological target: T1, 382 unique human kinases (Homo sapiens, UniProt Q16644); details: MAPKAPK3, 10 uM; for remaining activity at 10 µM: read-out: % Enzyme Activity (relative to DMSO controls)
T1 construct: purchased Reaction Biology (HotSpot contract assay)
T1 sequence (Q16644 whole entry): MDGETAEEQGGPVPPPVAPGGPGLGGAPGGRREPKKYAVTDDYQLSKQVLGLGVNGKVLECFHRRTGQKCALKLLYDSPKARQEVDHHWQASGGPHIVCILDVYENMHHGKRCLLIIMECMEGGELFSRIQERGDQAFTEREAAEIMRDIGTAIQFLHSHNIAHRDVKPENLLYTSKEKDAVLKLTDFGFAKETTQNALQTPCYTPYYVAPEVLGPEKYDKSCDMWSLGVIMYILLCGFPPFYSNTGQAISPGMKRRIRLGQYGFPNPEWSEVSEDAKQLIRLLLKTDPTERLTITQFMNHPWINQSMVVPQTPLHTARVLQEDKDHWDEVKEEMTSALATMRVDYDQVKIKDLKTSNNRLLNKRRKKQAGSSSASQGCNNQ

382 unique human kinases [2] = biological target: T2, 382 unique human kinases (Homo sapiens, UniProt P31749, E17K); details: AKT1 (E17K), 10 uM; for remaining activity at 10 µM: read-out: % Enzyme Activity (relative to DMSO controls)
T2 construct: purchased Reaction Biology (HotSpot contract assay)
T2 sequence (P31749 whole entry E17K): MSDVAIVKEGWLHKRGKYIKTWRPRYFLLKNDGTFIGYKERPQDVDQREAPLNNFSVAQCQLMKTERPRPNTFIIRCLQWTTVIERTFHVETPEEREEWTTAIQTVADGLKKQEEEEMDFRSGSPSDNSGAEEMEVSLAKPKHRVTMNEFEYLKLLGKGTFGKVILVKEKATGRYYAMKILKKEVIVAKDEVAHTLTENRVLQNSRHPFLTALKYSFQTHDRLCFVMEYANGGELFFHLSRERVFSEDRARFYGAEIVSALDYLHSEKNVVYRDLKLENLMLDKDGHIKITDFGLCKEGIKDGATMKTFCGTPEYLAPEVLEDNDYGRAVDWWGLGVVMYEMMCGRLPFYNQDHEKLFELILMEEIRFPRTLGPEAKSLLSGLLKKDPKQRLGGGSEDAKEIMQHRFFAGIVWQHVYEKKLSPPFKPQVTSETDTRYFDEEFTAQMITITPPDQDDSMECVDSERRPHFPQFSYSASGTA

382 unique human kinases [3] = biological target: T3, 382 unique human kinases (Homo sapiens, UniProt P10721, V560G); details: c-Kit (V560G), [ATP] 20 µM, compound 10 uM; for remaining activity at 10 µM: read-out: % Enzyme Activity (relative to DMSO controls)
T3 construct: purchased Reaction Biology (HotSpot contract assay)
T3 sequence (P10721 26-976 V560G): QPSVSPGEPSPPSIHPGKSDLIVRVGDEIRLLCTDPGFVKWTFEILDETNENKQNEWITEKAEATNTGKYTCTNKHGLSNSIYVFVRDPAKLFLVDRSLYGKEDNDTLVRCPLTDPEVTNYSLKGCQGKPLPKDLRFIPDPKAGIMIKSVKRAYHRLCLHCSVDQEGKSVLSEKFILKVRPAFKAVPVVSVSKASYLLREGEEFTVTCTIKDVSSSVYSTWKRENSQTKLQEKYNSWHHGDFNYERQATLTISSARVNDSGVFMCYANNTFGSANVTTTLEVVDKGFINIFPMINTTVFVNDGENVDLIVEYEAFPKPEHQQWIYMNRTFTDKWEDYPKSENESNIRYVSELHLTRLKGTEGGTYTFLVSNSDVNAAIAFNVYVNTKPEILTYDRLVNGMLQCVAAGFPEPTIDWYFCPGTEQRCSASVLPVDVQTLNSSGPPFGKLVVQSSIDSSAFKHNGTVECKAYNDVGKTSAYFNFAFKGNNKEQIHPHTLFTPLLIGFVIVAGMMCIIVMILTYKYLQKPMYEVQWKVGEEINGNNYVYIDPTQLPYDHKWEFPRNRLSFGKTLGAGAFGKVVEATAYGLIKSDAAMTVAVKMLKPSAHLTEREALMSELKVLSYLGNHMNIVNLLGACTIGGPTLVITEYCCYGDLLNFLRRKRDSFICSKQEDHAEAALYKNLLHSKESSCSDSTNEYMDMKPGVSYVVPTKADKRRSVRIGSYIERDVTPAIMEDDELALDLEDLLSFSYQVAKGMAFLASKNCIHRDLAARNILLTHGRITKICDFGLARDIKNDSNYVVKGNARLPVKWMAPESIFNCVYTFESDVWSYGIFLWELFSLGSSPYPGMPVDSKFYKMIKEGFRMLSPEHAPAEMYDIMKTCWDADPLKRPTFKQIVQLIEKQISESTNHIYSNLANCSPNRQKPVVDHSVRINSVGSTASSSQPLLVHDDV

382 unique human kinases [4] = biological target: T4, 382 unique human kinases (Homo sapiens, UniProt Q00537); details: kinase CDK17/cyclin Y (PCTK2), compound 10 uM; for remaining activity at 10 µM: read-out: % Enzyme Activity (relative to DMSO controls)
T4 construct: purchased Reaction Biology (HotSpot contract assay)
T4 sequence (Q00537 whole entry): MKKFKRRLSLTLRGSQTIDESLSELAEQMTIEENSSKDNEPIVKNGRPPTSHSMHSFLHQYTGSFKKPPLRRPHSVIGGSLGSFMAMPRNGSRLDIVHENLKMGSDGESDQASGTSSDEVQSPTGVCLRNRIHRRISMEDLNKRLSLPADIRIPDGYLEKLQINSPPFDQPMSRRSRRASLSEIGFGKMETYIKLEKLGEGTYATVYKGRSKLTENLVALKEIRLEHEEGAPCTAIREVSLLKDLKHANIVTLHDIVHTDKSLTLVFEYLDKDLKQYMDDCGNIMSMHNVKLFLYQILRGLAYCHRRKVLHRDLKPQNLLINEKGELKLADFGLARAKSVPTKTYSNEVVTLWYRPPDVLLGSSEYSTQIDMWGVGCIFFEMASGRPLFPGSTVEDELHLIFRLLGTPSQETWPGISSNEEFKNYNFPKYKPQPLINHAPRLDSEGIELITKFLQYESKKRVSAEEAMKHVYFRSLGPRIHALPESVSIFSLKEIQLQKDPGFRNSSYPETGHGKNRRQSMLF

382 unique human kinases [5] = biological target: T5, 382 unique human kinases (Homo sapiens, UniProt Q86Z02); details: HIPK1, compound at 10 uM, duplicate values; for remaining activity at 10 µM: read-out: % Enzyme Activity (relative to DMSO controls)
T5 construct: purchased Reaction Biology (HotSpot contract assay)
T5 sequence (Q86Z02 whole entry): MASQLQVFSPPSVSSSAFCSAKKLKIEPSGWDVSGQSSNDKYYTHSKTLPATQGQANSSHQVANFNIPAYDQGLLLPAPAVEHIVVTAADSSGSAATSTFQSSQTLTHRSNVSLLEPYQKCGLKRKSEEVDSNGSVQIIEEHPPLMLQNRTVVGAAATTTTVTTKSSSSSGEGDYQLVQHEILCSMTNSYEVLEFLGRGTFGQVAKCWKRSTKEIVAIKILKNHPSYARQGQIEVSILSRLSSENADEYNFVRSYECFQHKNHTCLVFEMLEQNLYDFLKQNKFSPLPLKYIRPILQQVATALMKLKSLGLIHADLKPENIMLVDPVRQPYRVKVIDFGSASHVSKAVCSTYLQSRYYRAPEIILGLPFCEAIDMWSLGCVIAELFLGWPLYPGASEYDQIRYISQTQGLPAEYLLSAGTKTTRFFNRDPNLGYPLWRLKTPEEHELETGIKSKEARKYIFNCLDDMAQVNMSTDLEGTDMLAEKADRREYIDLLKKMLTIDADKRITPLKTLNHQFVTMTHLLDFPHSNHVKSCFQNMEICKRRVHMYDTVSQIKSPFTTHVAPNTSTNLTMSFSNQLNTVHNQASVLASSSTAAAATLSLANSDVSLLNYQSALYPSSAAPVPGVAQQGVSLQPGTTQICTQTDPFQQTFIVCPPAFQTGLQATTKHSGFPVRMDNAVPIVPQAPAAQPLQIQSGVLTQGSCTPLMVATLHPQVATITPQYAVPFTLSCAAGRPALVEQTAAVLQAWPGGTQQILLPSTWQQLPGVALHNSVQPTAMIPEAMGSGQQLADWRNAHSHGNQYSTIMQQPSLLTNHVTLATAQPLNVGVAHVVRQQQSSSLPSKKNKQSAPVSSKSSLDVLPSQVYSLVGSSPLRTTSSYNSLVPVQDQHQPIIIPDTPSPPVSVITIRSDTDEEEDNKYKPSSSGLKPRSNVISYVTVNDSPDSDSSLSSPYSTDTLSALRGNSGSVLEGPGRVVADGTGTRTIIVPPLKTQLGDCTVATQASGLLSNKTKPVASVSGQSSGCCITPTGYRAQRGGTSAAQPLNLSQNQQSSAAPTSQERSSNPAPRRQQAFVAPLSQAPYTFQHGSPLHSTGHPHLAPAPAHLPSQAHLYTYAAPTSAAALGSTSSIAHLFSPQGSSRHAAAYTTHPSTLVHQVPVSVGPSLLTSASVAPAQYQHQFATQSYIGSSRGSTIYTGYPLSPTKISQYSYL

382 unique human kinases [6] = biological target: T6, 382 unique human kinases (Homo sapiens, UniProt Q9Y243, E17K); details: AKT3 (E17K), 10 uM; for remaining activity at 10 µM: read-out: % Enzyme Activity (relative to DMSO controls)
T6 construct: purchased Reaction Biology (HotSpot contract assay)
T6 sequence (Q9Y243 whole entry E17K): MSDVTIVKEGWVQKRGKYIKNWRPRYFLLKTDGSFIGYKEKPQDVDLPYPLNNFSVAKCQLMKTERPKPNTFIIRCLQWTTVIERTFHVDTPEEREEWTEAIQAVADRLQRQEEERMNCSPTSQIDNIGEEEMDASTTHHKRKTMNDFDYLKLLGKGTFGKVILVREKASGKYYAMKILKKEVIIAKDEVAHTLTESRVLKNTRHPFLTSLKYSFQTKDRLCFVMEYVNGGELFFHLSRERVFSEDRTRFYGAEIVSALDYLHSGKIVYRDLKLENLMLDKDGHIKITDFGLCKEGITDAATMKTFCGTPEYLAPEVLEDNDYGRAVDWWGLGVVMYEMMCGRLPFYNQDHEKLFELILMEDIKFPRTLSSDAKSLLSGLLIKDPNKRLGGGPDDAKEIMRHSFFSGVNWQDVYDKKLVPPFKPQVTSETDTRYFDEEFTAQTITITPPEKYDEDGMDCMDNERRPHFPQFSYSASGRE

382 unique human kinases [7] = biological target: T7, 382 unique human kinases (Homo sapiens, UniProt Q9BQI3); details: EIF2AK1, compound at 10 uM, duplicate values; for remaining activity at 10 µM: read-out: % Enzyme Activity (relative to DMSO controls)
T7 construct: purchased Reaction Biology (HotSpot contract assay)
T7 sequence (Q9BQI3 whole entry): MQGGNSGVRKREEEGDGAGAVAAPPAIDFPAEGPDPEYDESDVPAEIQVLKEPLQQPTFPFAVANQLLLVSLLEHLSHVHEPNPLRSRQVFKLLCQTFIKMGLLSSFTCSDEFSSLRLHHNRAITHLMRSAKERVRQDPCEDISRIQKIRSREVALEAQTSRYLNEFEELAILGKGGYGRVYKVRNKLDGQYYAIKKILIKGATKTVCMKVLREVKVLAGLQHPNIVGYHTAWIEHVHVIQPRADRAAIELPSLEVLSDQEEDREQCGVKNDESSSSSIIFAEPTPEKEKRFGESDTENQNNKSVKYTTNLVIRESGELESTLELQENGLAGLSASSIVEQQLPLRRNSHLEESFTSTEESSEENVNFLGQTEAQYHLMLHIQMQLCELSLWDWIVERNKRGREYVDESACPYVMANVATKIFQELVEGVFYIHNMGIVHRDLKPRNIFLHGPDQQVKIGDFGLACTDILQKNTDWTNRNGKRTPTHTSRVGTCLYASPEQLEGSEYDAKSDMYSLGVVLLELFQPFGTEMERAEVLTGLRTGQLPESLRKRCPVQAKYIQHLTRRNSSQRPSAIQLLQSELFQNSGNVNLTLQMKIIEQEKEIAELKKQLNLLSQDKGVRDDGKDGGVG

382 unique human kinases [8] = biological target: T8, 382 unique human kinases (Homo sapiens, UniProt P43403); details: ZAP70, compound at 10 uM, duplicate values; for remaining activity at 10 µM: read-out: % Enzyme Activity (relative to DMSO controls)
T8 construct: purchased Reaction Biology (HotSpot contract assay)
T8 sequence (P43403 1-619): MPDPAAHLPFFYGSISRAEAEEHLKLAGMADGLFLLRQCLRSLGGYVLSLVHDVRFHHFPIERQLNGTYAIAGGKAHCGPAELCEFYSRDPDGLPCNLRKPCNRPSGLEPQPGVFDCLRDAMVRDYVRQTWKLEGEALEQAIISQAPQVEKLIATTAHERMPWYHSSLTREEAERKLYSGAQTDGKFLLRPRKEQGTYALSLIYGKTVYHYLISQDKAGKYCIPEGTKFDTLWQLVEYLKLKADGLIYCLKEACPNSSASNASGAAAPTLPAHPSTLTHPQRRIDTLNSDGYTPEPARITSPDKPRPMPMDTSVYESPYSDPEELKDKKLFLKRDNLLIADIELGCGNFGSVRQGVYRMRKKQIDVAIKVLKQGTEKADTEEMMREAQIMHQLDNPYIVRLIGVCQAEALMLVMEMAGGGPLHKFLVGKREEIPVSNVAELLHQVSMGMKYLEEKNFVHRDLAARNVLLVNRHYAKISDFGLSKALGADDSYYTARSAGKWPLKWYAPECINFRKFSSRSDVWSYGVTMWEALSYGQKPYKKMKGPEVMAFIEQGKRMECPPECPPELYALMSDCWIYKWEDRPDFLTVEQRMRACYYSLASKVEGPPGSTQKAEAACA

382 unique human kinases [9] = biological target: T9, 382 unique human kinases (Homo sapiens, UniProt Q9HBY8); details: kinase SGK2, compound 10 uM; for remaining activity at 10 µM: read-out: % Enzyme Activity (relative to DMSO controls)
T9 construct: purchased Reaction Biology (HotSpot contract assay)
T9 sequence (Q9HBY8 1-367): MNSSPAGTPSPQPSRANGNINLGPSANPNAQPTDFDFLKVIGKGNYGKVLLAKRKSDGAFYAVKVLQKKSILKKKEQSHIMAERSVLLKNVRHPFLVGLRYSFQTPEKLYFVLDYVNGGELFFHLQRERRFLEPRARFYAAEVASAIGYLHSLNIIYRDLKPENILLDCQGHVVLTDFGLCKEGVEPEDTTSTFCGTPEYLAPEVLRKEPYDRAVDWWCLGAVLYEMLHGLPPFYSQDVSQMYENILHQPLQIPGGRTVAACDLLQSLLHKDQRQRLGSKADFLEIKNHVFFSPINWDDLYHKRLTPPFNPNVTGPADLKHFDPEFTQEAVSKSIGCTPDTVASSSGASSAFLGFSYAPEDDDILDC

382 unique human kinases [10] = biological target: T10, 382 unique human kinases (Homo sapiens, UniProt Q00536); details: CDK16/cyclin Y (PCTAIRE), 10 uM; for remaining activity at 10 µM: read-out: % Enzyme Activity (relative to DMSO controls)
T10 construct: purchased Reaction Biology (HotSpot contract assay)

382 unique human kinases [11] = biological target: T11, 382 unique human kinases (Homo sapiens, UniProt Q8WTQ7); details: GRK7, 10 uM; for remaining activity at 10 µM: read-out: % Enzyme Activity (relative to DMSO controls)
T11 construct: purchased Reaction Biology (HotSpot contract assay)
T11 sequence (Q8WTQ7 1-553): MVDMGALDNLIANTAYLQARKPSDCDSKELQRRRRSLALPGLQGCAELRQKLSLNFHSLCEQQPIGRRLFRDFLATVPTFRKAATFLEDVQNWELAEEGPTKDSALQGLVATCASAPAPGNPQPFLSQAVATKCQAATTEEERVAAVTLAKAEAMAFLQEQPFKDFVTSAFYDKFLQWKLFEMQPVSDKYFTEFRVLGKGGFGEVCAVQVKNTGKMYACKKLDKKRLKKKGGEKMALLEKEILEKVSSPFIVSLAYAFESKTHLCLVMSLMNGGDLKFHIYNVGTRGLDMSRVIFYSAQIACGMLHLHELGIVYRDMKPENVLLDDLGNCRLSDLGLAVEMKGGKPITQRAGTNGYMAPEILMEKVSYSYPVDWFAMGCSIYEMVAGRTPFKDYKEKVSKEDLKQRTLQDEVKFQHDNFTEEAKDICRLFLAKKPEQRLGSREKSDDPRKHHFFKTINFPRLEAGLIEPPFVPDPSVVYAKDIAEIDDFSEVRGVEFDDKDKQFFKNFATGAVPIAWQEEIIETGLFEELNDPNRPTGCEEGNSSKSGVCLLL

| SMILES | remaining activity at 10 µM (382 unique human kinases [1]) | remaining activity at 10 µM (382 unique human kinases [2]) | remaining activity at 10 µM (382 unique human kinases [3]) | remaining activity at 10 µM (382 unique human kinases [4]) | remaining activity at 10 µM (382 unique human kinases [5]) | remaining activity at 10 µM (382 unique human kinases [6]) | remaining activity at 10 µM (382 unique human kinases [7]) | remaining activity at 10 µM (382 unique human kinases [8]) | remaining activity at 10 µM (382 unique human kinases [9]) | remaining activity at 10 µM (382 unique human kinases [10]) | remaining activity at 10 µM (382 unique human kinases [11]) | also measured |
| --- | --- | --- | --- | --- | --- | --- | --- | --- | --- | --- | --- | --- |
| CCNC(=O)c1noc(-c2cc(C(C)C)c(O)cc2O)c1-c1ccc(CN2CCOCC2)cc1 [Luminespib] | 105% | 101% | 111% | – | – | – | – | – | – | – | – | % Enzyme Activity (relative to DMSO controls) (382 unique human kinases [1]): 103.47%; % Enzyme Activity (relative to DMSO controls) (382 unique human kinases [2]): 93.12%; % Enzyme Activity (relative to DMSO controls) (382 unique human kinases [3]): 109.32% |
| CC(C)c1cc(-c2n[nH]c(=O)n2-c2ccc3c(ccn3C)c2)c(O)cc1O [Ganetespib (STA9090)] | – | – | – | 86.5% | 133% | 77.7% | 110% | 108% | 85.5% | 78% | 75.4% | – |
| CCNC(=O)c1noc(-c2cc(C(C)C)c(O)cc2O)c1-c1ccc(CN2CCOCC2)cc1 [Luminespib (AUY-922)] | – | – | – | 80.7% | 104% | 84.2% | 127% | 105% | 110% | 100% | 96.7% | % Enzyme Activity (relative to DMSO controls) (382 unique human kinases [4]): 80.06%; % Enzyme Activity (relative to DMSO controls) (382 unique human kinases [5]): 102.12%; % Enzyme Activity (relative to DMSO controls) (382 unique human kinases [6]): 79.36%; % Enzyme Activity (relative to DMSO controls) (382 unique human kinases [7]): 122.69%; % Enzyme Activity (relative to DMSO controls) (382 unique human kinases [8]): 104.43%; % Enzyme Activity (relative to DMSO controls) (382 unique human kinases [9]): 108.05%; % Enzyme Activity (relative to DMSO controls) (382 unique human kinases [10]): 100.35%; % Enzyme Activity (relative to DMSO controls) (382 unique human kinases [11]): 95.66% |
| CC(C)c1cc(-c2n[nH]c(=O)n2-c2ccc3c(ccn3C)c2)c(O)cc1O [Ganetespib] | 97.3% | 94.2% | 58.9% | – | – | – | – | – | – | – | – | – |
